# Results from publication PMC5322802 (Biochemistry, 2016).
# Like-named read-outs stand apart in the source and are kept apart here.
# Columns and labels:
# FABP1 [1] = conditions: known Kd value, cited from earlier work
# FABP1 [2] = molecular target: T1, FABP1 (Mus musculus, UniProt P12710); assay: cis-parinaroyl-CoA displacement from FABP1; type: binding, murine; conditions: for fold stronger binding by FABP1 as compared to FABP3, FABP5, and FABP7: different displacement assays; for fold weaker binding to FABP1 than OEA: cis-parinaroyl-CoA displacement Kis; for Ki: displacement of FABP1-bound cis-parinaroyl-CoA (footnote a), 24°C, mean ± SEM, n=5, ND = no significant displacement
# T1 sequence (P12710 1-127): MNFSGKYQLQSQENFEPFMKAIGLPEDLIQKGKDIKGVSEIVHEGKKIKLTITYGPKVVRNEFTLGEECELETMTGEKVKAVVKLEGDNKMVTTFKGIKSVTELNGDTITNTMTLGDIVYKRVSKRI
# HSP70 = conditions: read-out: Kd of HSP70 binding AEA; cited from earlier work
# FABP1 [3] = molecular target: T1, FABP1; assay: ANS displacement from FABP1; type: binding, murine
# FABP1 [4] = molecular target: T1, FABP1; assay: Direct binding to FABP1: quenching of intrinsic Tyr fluorescence; set-up: species or system murine; conditions: FABP1 500nM, AEA 3μM
# FABP1 [5] = molecular target: T1, FABP1; assay: NBD-stearic acid displacement from FABP1; type: binding, murine; conditions: not shown
# ACBP = molecular target: T2, ACBP (Mus musculus, UniProt P31786); assay: Direct binding to ACBP: intrinsic Tyr/Trp fluorescence; set-up: species or system murine; conditions: ACBP 500nM
# T2 sequence (P31786 1-87): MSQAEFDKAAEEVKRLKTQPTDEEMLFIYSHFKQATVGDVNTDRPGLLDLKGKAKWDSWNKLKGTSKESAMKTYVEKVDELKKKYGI
# FABP1 [6] = molecular target: T1, FABP1; assay: DAUDA displacement from FABP1; type: binding, murine; conditions: very high AEA concentration, e.g. 9 μM; not shown
# [7] = in vivo; cited from earlier work
# SCP2 [8] = molecular target: T3, SCP2 (Homo sapiens, UniProt P22307); assay: NBD-stearic acid displacement from SCP2; type: binding; conditions: displacement of SCP2-bound NBD-stearic acid; SCP2 500nM, NBD-stearate 500nM
# T3 sequence (P22307 21-143 isoform P22307-2 limits assumed): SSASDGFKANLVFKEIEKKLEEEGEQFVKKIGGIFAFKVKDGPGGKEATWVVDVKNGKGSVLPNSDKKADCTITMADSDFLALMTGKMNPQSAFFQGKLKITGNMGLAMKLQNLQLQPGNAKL
# FABP4 = conditions: cited from earlier work
# FABP1 [9] = molecular target: T1, FABP1; assay: NBD-AEA displacement from FABP1; type: binding, murine; conditions: for displacement of / effect on FABP1-bound NBD-AEA (in words): FABP1 500nM, NBD-AEA 1μM
# FABP1 [10] = molecular target: T1, FABP1; assay: FABP1 binding of fluorescent ligands; set-up: species or system murine; conditions: read-out: Kd of FABP1 binding NBD-AEA; obtained herein (not shown)
# SCP2 [11] = molecular target: T3, SCP2; assay: Direct binding to SCP2: intrinsic Trp fluorescence
# [12] = FABP1 500nM, cis-parinaroyl-CoA 500nM
compound,measurement,setting,value
CC/C=C/C=C\C=C/C=C/CCCCCCCC(=O)SCCNC(=O)CCNC(=O)[C@H](O)C(C)(C)COP(=O)(O)OP(=O)(O)OC[C@H]1O[C@@H](n2cnc3c(N)ncnc32)[C@H](O)[C@@H]1OP(=O)(O)O (relative stereo) [cis-parinaroyl-CoA],Kd,FABP1 [1]; read-out: Kd1 of FABP1 binding cis-parinaroyl-CoA,27 ± 4 nM
same,Kd,FABP1 [1]; read-out: Kd2 of FABP1 binding cis-parinaroyl-CoA,66 ± 8 nM
"CCCCC/C=C\C/C=C\C/C=C\C/C=C\CCCC(=O)OC(CO)CO [2-AG, 2-arachidonoylglycerol]",fold stronger binding by FABP1 as compared to SCP2,FABP1 [2],≥ 3 fold
same,maximal displacement of FABP1-bound cis-parinaroyl-CoA,FABP1 [2]; [12],about 50%
same,"fold stronger binding by FABP1 as compared to FABP3, FABP5, and FABP7",FABP1 [2],2–15 fold
"CCCCC/C=C\C/C=C\C/C=C\C/C=C\CCCC(=O)NCCO [AEA, n-6 arachidonoylethanolamide]",Kd,HSP70,3700 ± 500 nM
same,displacement of FABP1-bound ANS (in words),FABP1 [3],did not displace
same,effect on FABP1 intrinsic Tyr fluorescence emission at 304 nm (in words),FABP1 [4],decreased
same,displacement of FABP1-bound NBD-stearic acid (in words),FABP1 [5],did not displace
same,maximal displacement of FABP1-bound cis-parinaroyl-CoA,FABP1 [2]; [12],about 50%
same,quenching of ACBP aromatic amino acid (Tyr) fluorescence emission (in words),ACBP,neither OEA nor AEA quenched
same,displacement of FABP1-bound DAUDA,FABP1 [6],13%
CCCCC/C=C\C/C=C\C/C=C\C/C=C\CCCC(=O)Nc1ccc(O)cc1 [AM404],maximal displacement of FABP1-bound cis-parinaroyl-CoA,FABP1 [2]; [12],about 50%
"CCCCC/C=C\C/C=C\C/C=C\C/C=C\CCCC(=O)O [ARA, arachidonic acid]",first-pass clearance by liver,[7],~50%
CCc1c(-c2ccccc2)c(-c2ccccc2)nn1-c1ccccc1-c1cccc(OCC(=O)O)c1 [BMS309403],Ki,SCP2 [8],5500 ± 500 nM
same,affinity of FABP4 for BMS309403,FABP4,< 2 nM
same,fold stronger binding by FABP1 than FABP3,FABP1 [2]; BMS309403,10 fold
same,fold stronger binding by FABP1 than FABP5,FABP1 [2]; BMS309403,12–50 fold
same,maximal displacement of FABP1-bound cis-parinaroyl-CoA (in words),FABP1 [2]; [12],almost completely
"C=C(C)[C@@H]1CCC(C)=C[C@H]1c1c(O)cc(CCCCC)cc1O [Cannabidiol, cannabidiol]",maximal displacement of FABP1-bound cis-parinaroyl-CoA,FABP1 [2]; [12],about 50%
same,"fold stronger binding by FABP1 as compared to FABP3, FABP5, and FABP7",FABP1 [2],9–11 fold
"CC/C=C\C/C=C\C/C=C\C/C=C\C/C=C\C/C=C\CCC(=O)NCCO [DHEA, n-3 docosahexaenoylethanolamide]",fold weaker binding to FABP1 than OEA,FABP1 [2],4–10 fold
"CC/C=C\C/C=C\C/C=C\C/C=C\C/C=C\CCCC(=O)NCCO [EPEA, n-3 eicosapentaenoylethanolamide]",fold weaker binding to FABP1 than OEA,FABP1 [2],4–10 fold
same,Ki,FABP1 [2],390 ± 30 nM
CCCC(C)(C)c1ccc2c(c1)OC(C)(C)[C@@H]1CC=C(C)C[C@@H]21 [JWH-133],Ki,"FABP1 [9]; displacement of FABP1-bound NBD-AEA (footnote b), 24°C, mean ± SEM, n=5, ND = no significant displacement",did not displace
same,Ki,FABP1 [2],did not displace
O=C(CCC/C=C\C/C=C\C/C=C\C/C=C\CCCCCNc1ccc([N+](=O)[O-])c2nonc12)NCCO [NBD-AEA],Kd,FABP1 [10],700 ± 100 nM
"CCCCCCCC/C=C\CCCCCCCC(=O)NCCO [OEA, oleoylethanolamide]",Kd,SCP2 [11],390 nM
same,effect on SCP2 Trp fluorescence emission (in words),"SCP2 [11]; SCP2 500nM, OEA 1.4 μM",significantly increased
same,quenching of ACBP aromatic amino acid (Tyr) fluorescence emission (in words),ACBP,neither OEA nor AEA quenched
CC(=O)Nc1ccc(Nc2nc(-c3ccc(Cl)c(Cl)c3)cs2)cc1 [SCPI1],Ki,SCP2 [8],680 ± 60 nM
"CCCCCc1cc(O)c2c(c1)OC(C)(C)[C@@H]1CCC(C)=C[C@@H]21 [THC, Δ^9-tetrahydrocannabinol]",displacement of / effect on FABP1-bound NBD-AEA (in words),FABP1 [9],essentially all
same,maximal displacement of FABP1-bound cis-parinaroyl-CoA,FABP1 [2]; [12],about 50%
CCCCC/C=C\C/C=C\C/C=C\C/C=C\CCCC(=O)Nc1ccc(O)cc1C [VDM11],maximal displacement of FABP1-bound cis-parinaroyl-CoA,FABP1 [2]; [12],about 50%
CCCCCCCC/C=C\CCCCCCCC(=O)SCCNC(=O)CCNC(=O)[C@H](O)C(C)(C)COP(=O)(O)OP(=O)(O)OC[C@H]1O[C@@H](n2cnc3c(N)ncnc32)[C@H](O)[C@@H]1OP(=O)(O)O [oleoyl-CoA],quenching of ACBP aromatic amino acid (Tyr) fluorescence emission (in words),ACBP,significantly quenched
SR-144528,displacement of / effect on FABP1-bound NBD-AEA (in words),FABP1 [9],increased the fluorescence
